Activity calls are given as the source filed them. The calls are words filed in the database; no cut-off is given here.
Key:
[1] = biological target: Tubulin; experiment: Inhibition of tubulin polymerization in HEK293T cell lysate after 15 mins by spectrophotometry; format: cell-free, Homo sapiens; details: hek-293t
[2] = Cytotoxicity against African green monkey Vero cells assessed as cell death by MTT assay; format: cell-based; details: chlorocebus sabaeus, read-out: LC50 (the source's name)
[3] = system: HEK-293T; experiment: Cytotoxicity against human HEK293T cells assessed as cell death by MTT assay; format: functional; details: read-out: LC50 (the source's name)
[4] = system: MCF7; experiment: Cytotoxicity against human MCF7 cells assessed as cell death after 48 hrs by MTT assay; format: functional; details: MCF7, 48 h, read-out: LC50 (the source's name)
[5] = system: HEK-293T; experiment: Induction of chromosomal damage in HEK293T cells assessed as micronuclei formation at LC50 after 24 hrs by cytokinesis-block micronucleus assay relative to untreated control; format: functional, cell-based; details: Homo sapiens
[6] = system: HeLa; experiment: Cytotoxicity against human HeLa cells assessed as cell death after 24 hrs by MTT assay; format: functional; details: read-out: LC50 (the source's name)
[7] = system: HEK-293T; experiment: Induction of DNA damage in HEK293T cells assessed as increase in comet length at LC50 after 24 hrs by Comet assay relative to untreated control; format: functional, cell-based; details: Homo sapiens
[8] = system: HEK-293T; experiment: Cytotoxicity against human HEK293T cells assessed as cell death after 24 hrs by MTT assay; format: functional; details: read-out: LC50 (the source's name)
[9] = system: HEK-293T; experiment: Induction of apoptosis in HEK293T cells assessed as reduction in PARP level at LC50 after 24 hrs by Western blot analysis; format: functional, cell-based; details: Homo sapiens
[10] = system: HEK-293T; experiment: Induction of apoptosis in HEK293T cells assessed as chromatin condensation and nuclear fragmentation at LC50 after 24 hrs by DAPI staining-based fluorescent microscopy; format: functional, cell-based; details: Homo sapiens
[11] = system: HEK-293T; experiment: Induction of apoptosis in HEK293T cells assessed as apoptotic nuclei at LC50 after 24 hrs by DAPI staining-based fluorescent microscopy; format: functional, cell-based; details: Homo sapiens
[12] = system: HEK-293T; experiment: Cytotoxicity against human HEK293T cells assessed as cell death after 48 hrs by MTT assay; format: functional; details: read-out: LC50 (the source's name)
[13] = system: HEK-293T; experiment: Induction of apoptosis in HEK293T cells assessed as activation of caspase 3 at LC50 after 24 hrs by immunocytochemical analysis; format: functional, cell-based; details: Homo sapiens
[14] = system: SiHa; experiment: Cytotoxicity against human SiHa cells assessed as cell death after 48 hrs by MTT assay; format: functional; details: read-out: LC50 (the source's name)
[15] = system: SiHa; experiment: Cytotoxicity against human SiHa cells assessed as cell death after 24 hrs by MTT assay; format: functional; details: read-out: LC50 (the source's name)
[16] = system: HEK-293T; experiment: Induction of apoptosis in HEK293T cells assessed as increase in p53 expression at LC50 after 24 hrs by Western blot analysis; format: functional, cell-based; details: Homo sapiens
[17] = system: HeLa; experiment: Cytotoxicity against human HeLa cells assessed as cell death after 48 hrs by MTT assay; format: functional; details: read-out: LC50 (the source's name)
[18] = system: MCF7; experiment: Cytotoxicity against human MCF7 cells assessed as cell death after 24 hrs by MTT assay; format: functional; details: MCF7, 24 h, read-out: LC50 (the source's name)
[19] = system: HEK-293T; experiment: Induction of cell cycle arrest in HEK293T cells assessed as cells accumulation at G2/M phase at LC50 after 24 hrs by PI staining-based FACS scan flow cytometry (reference value: 22.2 +/- 1.5%); format: functional, Homo sapiens
[20] = system: HEK-293T; experiment: Cytotoxicity against human HEK293T cells assessed as inhibition of colony formation at LC50 after 24 hrs by crystal violet staining based clonogenic cell survival assay; format: functional
[21] = biological target: Tubulin (Homo sapiens) (UniProt P68371+Q9H4B7+P0DPH7+P68366+Q13509+Q71U36+P04350+Q3ZCM7+P07437+P68363+Q9BQE3+Q6PEY2+Q13885+Q9BVA1+Q9BUF5); experiment: Inhibition of tubulin assembly in HEK293T cells assessed as formation of abnormal mitotic spindles at LC50 after 24 hrs by immunofluorescence based confocal microscopy; format: cell-based; details: HEK-293T
[22] = system: HEK293; experiment: Inhibition of anchorage-dependent HEK293T cell migration at LC50 after 6 to 24 hrs by wound healing assay; format: functional, cell-based; details: Homo sapiens

SMILES: COc1ccc(-c2nc3cnccn3c2Nc2cc(OC)c(OC)c(OC)c2)cc1O
- IC50 [1]: 38 µM
- CC50 [2]: 50 µM
- CC50 [3]: 38 µM

SMILES: COc1ccc(Nc2c(-c3ccc(Cl)cc3)nc3cnccn23)cc1
- IC50 [1]: 46 µM
- CC50 [2]: 45 µM
- CC50 [3]: 34 µM

SMILES: COc1ccc(-c2nc3sc4ccccc4n3c2Nc2cc(OC)c(OC)c(OC)c2)cc1O
- IC50 [1]: 20 µM
- CC50 [2]: 26 µM
- CC50 [3]: 22 µM

SMILES: COc1ccc(/C=C\c2cc(OC)c(OC)c(OC)c2)cc1O [COMBRETASTATIN A4]
- CC50 [4]: 2 µM
- Activity [5]: Active
- CC50 [6]: 6 µM
- Activity [7]: Active
- CC50 [8]: 8 µM
- Activity [9]: Active
- Activity [10]: Active
- Activity [11]: Active
- CC50 [12]: 200 nM
- CC50 [2]: 11 µM
- Activity [13]: Active
- CC50 [14]: 200 nM
- CC50 [15]: 0.6 µM
- CC50 [3]: 8 µM
- Activity [16]: Active
- CC50 [17]: 0.8 µM
- CC50 [18]: 7 µM

SMILES: COc1ccc(-c2nc3sccn3c2Nc2cc(OC)c(OC)c(OC)c2)cc1O
- IC50 [1]: 36 µM
- CC50 [2]: 62 µM
- CC50 [3]: 36 µM

SMILES: COc1ccc(-c2nc3cnccn3c2Nc2cc(OC)c(OC)c(OC)c2)cc1
- IC50 [1]: 40 µM
- CC50 [2]: 75 µM
- CC50 [3]: 54 µM

SMILES: COc1cc(-c2nc3cnccn3c2Nc2cc(OC)c(OC)c(OC)c2)cc(OC)c1O
- IC50 [1]: 34 µM
- CC50 [2]: 62 µM
- CC50 [3]: 34 µM

SMILES: COc1ccc(Nc2c(-c3ccc(OC)c(O)c3)nc3cnccn23)cc1
- IC50 [1]: 38 µM
- CC50 [2]: 62 µM
- CC50 [3]: 38 µM

SMILES: COc1cc(Nc2c(C3C=Nc4ccccc43)nc3cnccn23)cc(OC)c1OC (stereo not drawn)
- CC50 [4]: 6 µM
- Activity [5]: Active
- IC50 [1]: 11 µM
- CC50 [6]: 17 µM
- Activity [7]: Active
- CC50 [8]: 12 µM
- Activity [19]: 87.4%
- Activity [9]: Active
- inhibition [20]: Active
- Activity [10]: Active
- inhibition [21]: Active
- Activity [11]: Active
- CC50 [12]: 3000 nM
- inhibition [22]: Active
- CC50 [2]: 70 µM
- Activity [13]: Active
- CC50 [14]: 3000 nM
- CC50 [15]: 7 µM
- CC50 [3]: 12 µM
- Activity [16]: Active
- CC50 [17]: 9 µM
- CC50 [18]: 18 µM

SMILES: COc1ccc(Nc2c(-c3cc(OC)c(OC)c(OC)c3)nc3ccccn23)cc1
- CC50 [4]: 5 µM
- Activity [5]: Active
- IC50 [1]: 14 µM
- CC50 [6]: 9 µM
- Activity [7]: Active
- CC50 [8]: 10 µM
- Activity [19]: 40.7%
- Activity [9]: Active
- inhibition [20]: Active
- Activity [10]: Active
- inhibition [21]: Active
- Activity [11]: Active
- CC50 [12]: 5000 nM
- inhibition [22]: Active
- CC50 [2]: 65 µM
- Activity [13]: Active
- CC50 [14]: 2000 nM
- CC50 [15]: 5 µM
- CC50 [3]: 10 µM
- Activity [16]: Active
- CC50 [17]: 5 µM
- CC50 [18]: 8 µM

SMILES: COc1cc(Nc2c(-c3ccc(Cl)cc3)nc3cnccn23)cc(OC)c1OC
- IC50 [1]: 32 µM
- CC50 [2]: 32 µM
- CC50 [3]: 25 µM

SMILES: COc1ccc(Nc2c(-c3ccc(F)cc3)nc3cnccn23)cc1
- IC50 [1]: 44 µM
- CC50 [2]: 72 µM
- CC50 [3]: 56 µM

SMILES: COc1ccc(-c2nc3ccccn3c2Nc2cc(OC)c(OC)c(OC)c2)cc1O
- CC50 [4]: 12 µM
- Activity [5]: Active
- IC50 [1]: 12 µM
- CC50 [6]: 15 µM
- Activity [7]: Active
- CC50 [8]: 10 µM
- Activity [19]: 33.6%
- Activity [9]: Active
- inhibition [20]: Active
- Activity [10]: Active
- inhibition [21]: Active
- Activity [11]: Active
- CC50 [12]: 5000 nM
- inhibition [22]: Active
- CC50 [2]: 50 µM
- Activity [13]: Active
- CC50 [14]: 2000 nM
- CC50 [15]: 5 µM
- CC50 [3]: 10 µM
- Activity [16]: Active
- CC50 [17]: 10 µM
- CC50 [18]: 20 µM

SMILES: COc1ccc(-c2nc3cccc(C)n3c2Nc2cc(OC)c(OC)c(OC)c2)cc1O
- IC50 [1]: 38 µM
- CC50 [2]: 74 µM
- CC50 [3]: 63 µM

SMILES: COc1ccc(Nc2c(-c3cccc(O)c3)nc3ccccn23)cc1
- IC50 [1]: 42 µM
- CC50 [2]: 74 µM
- CC50 [3]: 47 µM

SMILES: COc1ccc(Nc2c(-c3cccc(B(O)O)c3)nc3ccccn23)cc1
- IC50 [1]: 48 µM
- CC50 [2]: 58 µM
- CC50 [3]: 48 µM

SMILES: COc1ccc(Nc2c(-c3ccc(OC)cc3)nc3ccccn23)cc1
- IC50 [1]: 34 µM
- CC50 [2]: 54 µM
- CC50 [3]: 34 µM

SMILES: COc1cc(Nc2c(-c3ccc(F)cc3)nc3cnccn23)cc(OC)c1OC
- IC50 [1]: 36 µM
- CC50 [2]: 48 µM
- CC50 [3]: 36 µM

SMILES: COc1ccc(-c2nc3cc(C)ccn3c2Nc2cc(OC)c(OC)c(OC)c2)cc1O
- CC50 [4]: 10 µM
- Activity [5]: Active
- IC50 [1]: 10 µM
- CC50 [6]: 15 µM
- Activity [7]: Active
- CC50 [8]: 8 µM
- Activity [19]: 36.6%
- Activity [9]: Active
- inhibition [20]: Active
- Activity [10]: Active
- inhibition [21]: Active
- Activity [11]: Active
- CC50 [12]: 3000 nM
- inhibition [22]: Active
- CC50 [2]: 48 µM
- Activity [13]: Active
- CC50 [14]: 1500 nM
- CC50 [15]: 4 µM
- CC50 [3]: 8 µM
- Activity [16]: Active
- CC50 [17]: 7 µM
- CC50 [18]: 15 µM

SMILES: COc1ccc(Nc2c(-c3ccc(OC)c(O)c3)nc3ncccn23)cc1
- IC50 [1]: 54 µM
- CC50 [2]: 56 µM
- CC50 [3]: 54 µM

SMILES: COc1cc(Nc2c(-c3cccc(O)c3)nc3cnccn23)cc(OC)c1OC
- IC50 [1]: 39 µM
- CC50 [2]: 63 µM
- CC50 [3]: 42 µM

From ChEMBL document CHEMBL3580592, “Combretastatin A-4 inspired novel 2-aryl-3-arylamino-imidazo-pyridines/pyrazines as tubulin polymerization inhibitors, antimitotic and anticancer agents” (Medchemcomm, 2014)
